Test results taken from US20240418735A1, “Methods and Kits for Determining Insulin Resistance Treatment” (Scimar Ltd., priority 2021, published 2024).

Tests used:
[1] = tested on: hepatalin secretion; conditions: one dose given before a test meal; rats on sucrose supplemented diet, 9 weeks; cited from earlier work
[2] = tested on: MIS (Meal-induced Insulin Sensitization); assay: RIST index / % MIS before and 90 minutes after a mixed liquid meal in sucrose-supplemented rats; assay type: in vivo; conditions: for restoration of MIS on increasing the dose: increased doses of either NAC or BE, sucrose-supplemented rats
Excerpt: While the present invention is not limited to a particular model or mechanism of action, it appears the response to feeding results in the release of acetylcholine which activates muscarinic receptors in the liver. This activation leads to increased production of nitric oxide which stimulates guanyl cyclase activity, resulting in increased levels of cyclic guanosine monophosphate which acts in stimulating the release of hepatalin from the liver. Meal-induced insulin […] (MIS) results from insulin-induced secretion of hepatalin which can only occur if the liver receives two permissive feeding signals. Absence of either signal blocks the ability of insulin to trigger hepatalin secretion. The combination of bethanechol and N-acetylcystelne (BENAC) mimics the 2 signals.
FIG. 1 is a chart showing BENAC synergistic treatment of AMIS. The % MIS (hepatalin/insulin action×100%) calculated from the RIST index in 24 hour fasted anaesthetized rats determined before and 90 minutes after intragastric injection of a mixed liquid meal in a normal control group and in four groups that had been treated with nine weeks of sucrose supplementation.

[3] = tested on: GSH; assay: GSH levels in sucrose-supplemented rats; assay type: in vivo; conditions: nine weeks of sucrose supplementation

Row | SMILES | ability of insulin to stimulate hepatalin secretion [1] | effect on the RIST index ([2]; 24 hour fasted anaesthetized rats, nine weeks of sucrose supplementation) | restoration of MIS on increasing the dose [2] | GSH levels [3] | restoration of MIS (% MIS calculated from the RIST index) ([2]; 24 hour fasted anaesthetized rats, nine weeks of sucrose supplementation, before and 90 minutes after intragastric mixed liquid meal)
1 | CC(=O)N[C@@H](CS)C(=O)O [N-acetyl cysteine] | ineffective | no effect | restored MIS to levels seen after feeding but not above | elevated GSH levels to that seen after feeding | 
2 | CC(C[N+](C)(C)C)OC(N)=O (stereo not shown) [Bethanechol] | ineffective |  | restored MIS to levels seen after feeding but not above |  | modest restoration of MIS
